The values that follow come from patent US7598269B2, “Methods and compositions for treating amyloid-related diseases” (Bellus Health (International) Limited, priority 2003, dated 2009).

In test [1] the target is T1, NAC peptide (Homo sapiens, UniProt P37840).
T1 construct: NAC is a 35 amino acid long peptide with highly hydrophobic stretches
Put plainly: Binding to NAC peptide by electrospray mass spectrometry. The note with it: area of bound NAC-compound complex peaks / unbound NAC; compound:NAC 5:1, 6.6% EtOH, pH 7.4. On the procedure: The ability of the compounds of the present invention to bind to NAC peptide in aqueous solution was evaluated. The binding ability correlates to the intensities of the peptide-compound complex peaks observed by the Electrospray Mass Spectrum. Millipore distilled deionized water was used to prepare all aqueous solutions. For pH determination a Beckman Φ36 pH meter fitted with a Corning Semi-Micro Combination pH Electrode was employed.
The optimal cone voltage was determined to be 20V.
Mass spectrometry—Mass spectrometric analysis was performed using a Waters ZQ 4000 mass spectrometer equipped with a Waters 2795 sample manager. MassLynx 4.0 (earlier by MassLynx 3.5) was used for data processing and analysis. Test compounds were mixed with disaggregated peptides in aqueous media (6.6% EtOH) at a 5:1 ratio (20 μM NAC: 100 μM of test compound or 40 μM NAC:200 μM of test compound). The pH of the mixture was adjusted to 7.4 (±0.2) using 0.1% NaOH (3-5 μL). Periodically, NAC peptide solution at 20 μM or 40 μM was also prepared in the same fashion and run as control. The spectra were obtained by introducing the solutions to the electrospray source by direct infusion using a syringe pump at a flow rate of 25 μl/min, and scanning from 100 to 2100 Da in the positive mode. The scan time was 0.9 sec per scan with an inter-scan delay of 0.1 sec and the run time was 5 min for each sample. All the mass spectra were sum of 300 scans. The desolvation and source temperature was 70° C. and the cone and capillary voltage were maintained at 20 V and 3.2 kV respectively.
The total area under the peaks for the bound NAC-compound complex divided by total area under the peaks for unbound NAC was determined for each compound tested.

In test [2] the target is T2, Aβ40 (Homo sapiens, UniProt P05067).
T2 construct: from tissue; host or cells: plasma and brain homogenate of TgCRND8 transgenic mice (hAPP transgene)
T2 sequence (P05067 672-711 limits assumed): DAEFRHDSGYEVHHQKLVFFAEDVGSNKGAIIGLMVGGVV
Put plainly: Short term treatment of TgCRND8 mice: Aβ40 levels in plasma and brain (ELISA). It is filed as in vivo, Mouse. The following applies: methylcellulose group; for Aβ40 Change Soluble / Aβ40 Change Insoluble: brain homogenate. The source says:
(§1) Transgenic mice, […]8, expressing the human amyloid precursor protein (hAPP) develop a pathology resembling Alzheimer's disease. In particular, high levels of Aβ40 and Aβ42 have been documented in the plasma and the brain of these animals at 8-9 weeks of age, followed by early accumulation of amyloid plaques similar to the senile plaques observed in […]. These animals also display progressive cognitive deficits that parallel the appearance of degenerative changes. See, […], et al., J. Biol. Chem. 276, 21562-70 (2001). The short term therapeutic effect of 19 compounds of the invention was studied. […] The following abbreviations are used to designate these animals from the 3rd and 4th generation backcross in the present protocol: TgCRND8-2.B6C3F1 (N3); TgCRND8-2.B6C3F1 (N4). Baseline animals (Group 1) consisted of naive TgCRND8-2.B6C3F1(N3) at 11±1 weeks of age. These mice were used to determine the Aβ levels in the plasma and brain of naive transgenic animals at the initiation of treatment. […] At the end of the treatment periods, plasma and perfused brains were collected for quantification of Aβ levels. […] Plasma samples were immediately frozen and stored at -80° C. pending analysis. The brains were removed, frozen, and stored at -80° C. awaiting analysis. […] Samples were spun at 15000 g for 20 minutes and the supernatants were transferred to fresh tubes. […] The tubes were vortexed for 30 seconds and frozen at -80° C. […] Samples were thawed at room temperature, sonicated at 80° C. for 15 minutes and frozen again. This cycle was repeated 3 times to ensure homogeneity and samples were returned to -80° C. pending analysis. Aβ levels were evaluated in plasma and brain samples by ELISA using Human Aβ40 and Aβ42 Fluorometric ELISA kits from Biosource (Cat. […] In short, samples were thawed at room temperature, sonicated for 5 minutes at 80° C. (sonication for brain homogenates; no sonication for plasma samples) and kept on ice. Aβ peptides were captured using 100 μl of the diluted samples to the plate and incubated without shaking at 4° C. overnight. The samples were aspirated and the wells were rinsed 4 times with wash buffer obtained from the Biosource ELISA kit. The anti-Aβ40 or anti-Aβ42 rabbit polyclonal antiserum (specific for the Aβ40 or Aβ42 peptide) was added (100 μl) and the plate was incubated at room temperature for 2 hours with shaking. The wells were aspirated and washed 4 times before adding 100 μl of the alkaline phosphatase labeled anti-rabbit antibody and incubating at room temperature for 2 hours with shaking. The plates were then rinsed 5 times and the fluorescent substrate (100 μl) was added to the plate. The plate was incubated for 35 minutes at room temperature and the plate was read using a titer plate reader at an excitation wavelength of 460 nm and emission at 560 nm. Compounds were scored based on their ability to modulate levels of Aβ peptides in the plasma and the cerebral soluble/insoluble levels in the brain. Levels of Aβ observed in the plasma and brain of treated animals were normalized using values from vehicle-treated (water) or methylcellulose-treated control groups and ranked according to the strength of the pharmacological effect. Increases in the levels of Aβ peptides are indicated using “+” symbols, while decreases in the levels of Aβ peptides are indicated using “-” symbols. The strongest effects are recorded as “+++” or “---” while the weakest are shown as “+” or “-”.

The target of test [3] is T3, Aβ42 (Homo sapiens, UniProt P05067).
T3 construct: from tissue; host or cells: plasma and brain homogenate of TgCRND8 transgenic mice (hAPP transgene)
T3 sequence (P05067 672-713 limits assumed): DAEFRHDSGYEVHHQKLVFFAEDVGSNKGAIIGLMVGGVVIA
Put plainly: Short term treatment of TgCRND8 mice: Aβ42 levels in plasma and brain (ELISA). In kind it is in vivo, Mouse. The note with it: methylcellulose group; for Aβ42 Change: plasma, TgCRND8 mice.
Text: as §1
(In general: An ELISA detects its analyte on a solid surface through an enzyme-linked reagent.)

Test [4] relates to Aβ peptides. Put plainly: Short term treatment of TgCRND8 mice: Aβ peptide levels. It is filed as in vivo, Mouse. The following applies: after 14 and 28 days of treatment. On the procedure: The short term therapeutic effect of 19 compounds of the invention was studied. These compounds were administered over a 14 or 28 day period at the end of which the levels of Aβ peptides in the plasma and brain of TgCRND8 animals were determined.
Starting at 11 weeks of age (±1 week) animals received daily administration of their respective treatment for a period of 14 or 28 days (groups 2-21), at a dose of 250 mg/kg at 10 ml/kg or of vehicle only (water; group 2) or 1% methyl cellulose only (group 21). The route of administration was subcutaneous for water-soluble compounds and oral for compounds solubilized in methylcellulose 1% (MC 1%). At the end of the treatment periods, plasma and perfused brains were collected for quantification of Aβ levels.
Aβ levels were evaluated in plasma and brain samples by ELISA using Human Aβ40 and Aβ42 Fluorometric ELISA kits from Biosource (Cat. No. 89-344 and 89-348) according to manufacturer's recommended procedures. […] The plate was incubated for 35 minutes at room temperature and the plate was read using a titer plate reader at an excitation wavelength of 460 nm and emission at 560 nm.
Compounds were scored based on their ability to modulate levels of Aβ peptides in the plasma and the cerebral soluble/insoluble levels in the brain. […] The strongest effects are recorded as “+++” or “−−−” while the weakest are shown as “+” or “−”.

The mark [5] stands for this setting: brain homogenate, Day 14, 250 mg/kg daily oral.
The mark [6] stands for this setting: brain homogenate, Day 28, 250 mg/kg daily oral.

In the case of `NCCCCS(=O)(=O)[O-].[Na+]`, the “Binding Strength” value in test [1] was “− (None; when the total binding is between 30% and 0%)”.

With `O=C1NCCCC[C@@H]1NCCCS(=O)(=O)[O-].[Na+]`, in test [1], the “Binding Strength” value is “+ (Weak; when the total binding is between 70% and 30%)”.

As for `O=S(=O)(O)CCCNC1CCCc2ccccc21` (stereo not drawn) [Compound BU, 3-(1,2,3,4-tetrahydro-1-naphthylamino)-1-propanesulfonic acid], the “Aβ40 Change Soluble” value is recorded as “− (Decreases in the levels of Aβ of 5 to 19% are scored as “−”)” in test [2] (Day 14, 250 mg/kg daily oral) and “−− (decreases of 20 to 38% are scored as “−−”)” in test [2] (Day 28, 250 mg/kg daily oral). Besides, the “Aβ40 Change Insoluble” value in test [2] (Day 28, 250 mg/kg daily oral) was “−− (decreases of 20 to 38% are scored as “−−”)”. Further, in test [2] (plasma, Day 14, 250 mg/kg daily oral, TgCRND8 mice), the “Aβ40 Change” value is “− (Decreases in the levels of Aβ of 5 to 19% are scored as “−”)”. The “Aβ42 Change Insoluble” value in test [3] (setting [5]) was “−−− (decreases of 39% or more are scored as “−−−”)”; in test [3] (setting [6]) it was “−− (decreases of 20 to 38% are scored as “−−”)”.

Take `CC(C)(C)NCCCS(=O)(=O)O` [Compound BX, 3-(t-butyl)amino-1-propanesulfonic acid]: the “levels of Aβ peptides in the plasma” value in test [4] is on record as “significant increase”.

On to `CCCCCCCCCNCCCS(=O)(=O)O` [DA, 3-nonylamino-1-propanesulfonic acid], for which the “Aβ40 Change Insoluble” value was “−−− (decreases of 39% or more are scored as “−−−”)” in test [2] (Day 14, 250 mg/kg daily oral) and “−− (decreases of 20 to 38% are scored as “−−”)” in test [2] (Day 28, 250 mg/kg daily oral). For the same compound, the “Aβ40 Change Soluble” value in test [2] (Day 14, 250 mg/kg daily oral) is “− (Decreases in the levels of Aβ of 5 to 19% are scored as “−”)”; in test [2] (Day 28, 250 mg/kg daily oral), “−− (decreases of 20 to 38% are scored as “−−”)”. Moreover, the “Aβ42 Change Insoluble” value in test [3] (setting [5]) and in test [3] (setting [6]) was “−− (decreases of 20 to 38% are scored as “−−”)” throughout. Also, in test [3] (setting [5]), the “Aβ42 Change Soluble” value is “−− (decreases of 20 to 38% are scored as “−−”)”. Besides, the “Aβ42 Change” value is listed as “+ (increases in the levels of Aβ (relative to untreated control) of 20 to 39% are scored as “+”)” in test [3] (Day 14, 250 mg/kg daily oral) and “+ (increases in the levels of Aβ (relative to untreated control) of 20 to 39% are scored as “+”)” in test [3] (Day 28, 250 mg/kg daily oral).

Take `CCCCCCCCCCCC[N+](C)(C)CCCS(=O)(=O)[O-]` [DF, CH3(CH2)11N^+(CH3)2(CH2)3SO3^−]: the “Binding Strength” value in test [1] is “++ (Moderate; when the total binding is between 120% and 70%)”.

As to `CCCCCCCCCCCCCC[N+](C)(C)CCCS(=O)(=O)[O-]` [NA, CH3(CH2)13N^+(CH3)2(CH2)3SO3^−], the “Binding Strength” value in test [1] was “++ (Moderate; when the total binding is between 120% and 70%)”.

As to CH3(CH2)9N^+(CH3)2(CH2)3SO3^− [DB], the “Binding Strength” value in test [1] is “+++ (Strong; when the total binding is 120% and higher)”.
